Test results from patent publication US12612372B2, “Oxopyridazinyl-phenyl-carbonohydrazonoyl dicyanide compound and use thereof” (KOREA INSTITUTE OF SCIENCE AND TECHNOLOGY, priority 2020, dated 2026).

What was measured:
[1] = Liver microsome stability, rat; type: in vitro ADME; conditions: rat liver microsomes 0.25 mg/mL, 1 μM compound, 37° C., 30 minutes, NADPH
Protocol: (§1) The stability of liver microsomes due to the compounds prepared according to Examples 1 to 14 was confirmed. Specifically, four types of liver microsomes (human, dog, rat, and mouse, each 0.25 mg/mL), a 0.1 M phosphate buffer solution (pH 7.4), and each of the compounds at a concentration of 1 μM were mixed and pre-cultured at 37° C. for 5 minutes and further cultured at 37° C. for 30 minutes together with an NADPH generation system solution added thereto. Thereafter, the reaction was terminated by adding an acetonitrile solution containing an internal standard material (chlorpropamide) and centrifuged for 5 minutes (14,000 rpm, 4° C.), and then a supernatant was injected into an LC-MS/MS system for analysis of substrate drugs to thereby evaluate metabolic stability due to 8 types of compounds.
(§2) The amount of the substrate remaining after the reaction was analyzed using the Shimadzu Nexera XR system and TSQ Vantage (Thermo). In an HPLC column, Kinetex XB-C18 (2.1 mm×100 mm, particle size of 2.6 μm; Phenomenex, USA) was used, and mobile phases were (A) distilled water containing 0.1% formic acid and (B) acetonitrile containing 0.1% formic acid. Analyst software (version 1.6.3) and Xcalibur (version 1.6.1) were used for data analysis.

[2] = Liver microsome stability, human; type: in vitro ADME; conditions: human liver microsomes 0.25 mg/mL, 1 μM compound, 37° C., 30 minutes, NADPH
Protocol: as §1, §2

CYP2C9 = biological target: T1, CYP2C9 (Homo sapiens, UniProt P11712); assay: CYP coenzyme activity in human liver microsomes, CYP2C9; type: in vitro ADME; conditions: 10 μM compound, human liver microsomes 0.25 mg/mL, substrate diclofenac, 15 minutes
T1 construct: human liver microsomes (0.25 mg/mL); from tissue; host or cells: human liver microsomes
Protocol: (§3) Specifically, human liver microsomes (0.25 mg/mL), a 0.1 M phosphate buffer solution (pH 7.4), a substrate drug cocktail of five types of drug metabolism enzymes (50 μM phenacetin, 10 μM diclofenac, 100 μM S-mephenytoin, 5 μM dextromethorphan, and 2.5 μM midazolam), and the compound at a concentration of 0 μM or 10 μM were mixed and pre-cultured at 37° C. for 5 minutes, and then further cultured at 37° C. for 15 minutes together with an NADPH generation system solution added thereto. Thereafter, the reaction was terminated by adding an acetonitrile solution containing an internal standard material (terfenadine) and centrifuged for 5 minutes (14,000 rpm, 4° C.), and then a supernatant was injected into an LC-MS/MS system for simultaneous analysis of metabolites of the substrate drugs to thereby evaluate the inhibitory effects on drug metabolism.
(§4) Metabolites of each CYP coenzyme indicator drug generated through the reaction were analyzed using the Shimadzu Nexera XR system and TSQ Vantage (Thermo). In an HPLC column, Kinetex C18 (2.1 mm×100 mm, 2.6 μm particle size; Phenomenex, USA) was used, and mobile phases were (A) distilled water containing 0.1% formic acid and (B) acetonitrile containing 0.1% formic acid, and a gradient program shown in Table 3 was applied thereto.
(§5) The generated metabolites were quantified using a multiple reaction monitoring (MRM) quantification mode, and Xcalibur (version 1.6.1) was used for data analysis. In order to express the inhibitory effects of the novel compounds prepared according to the examples of the present invention on CYP coenzyme activity, CYP coenzyme activities (%) with respect to the control group not treated with any compound are shown in Table 4 below.

CYP1A2 = biological target: T2, CYP1A2 (Homo sapiens, UniProt P05177); assay: CYP coenzyme activity in human liver microsomes, CYP1A2; type: in vitro ADME; conditions: 10 μM compound, human liver microsomes 0.25 mg/mL, substrate phenacetin, 15 minutes
T2 construct: human liver microsomes (0.25 mg/mL); from tissue; host or cells: human liver microsomes
T2 sequence (P05177 1-516): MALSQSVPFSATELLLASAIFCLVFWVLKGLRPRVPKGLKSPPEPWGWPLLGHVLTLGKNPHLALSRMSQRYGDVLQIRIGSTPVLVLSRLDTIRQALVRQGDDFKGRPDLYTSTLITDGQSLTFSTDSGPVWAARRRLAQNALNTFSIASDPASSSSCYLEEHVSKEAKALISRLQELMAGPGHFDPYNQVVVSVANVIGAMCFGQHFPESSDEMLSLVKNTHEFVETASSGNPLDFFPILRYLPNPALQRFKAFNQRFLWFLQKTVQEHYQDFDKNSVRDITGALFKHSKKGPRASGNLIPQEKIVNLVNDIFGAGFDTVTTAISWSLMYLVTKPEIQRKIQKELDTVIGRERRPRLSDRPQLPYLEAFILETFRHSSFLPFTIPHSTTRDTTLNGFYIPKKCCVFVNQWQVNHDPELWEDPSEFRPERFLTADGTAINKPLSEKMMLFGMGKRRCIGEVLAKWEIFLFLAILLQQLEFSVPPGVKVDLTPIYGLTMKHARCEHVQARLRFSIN
Protocol: as §3, §4, §5

Tau-BiFC cells = assay: Cell viability (stained nuclei count) in tau-BiFC cells; conditions: 10 μM compound; stained nuclei relative to Forskolin-only group (100%), 48 hours
Protocol: (§6) In order to select novel tau protein aggregation—inhibiting substances, tau-BiFC cell model, in which formation of tau oligomers in living cells is easily observed, was used. Tau-BiFC cells were aliquoted into a 384-well plate. […] After 48 hours, nuclei in the cells were stained using Hoechst (at a treatment concentration of 2 μg/mL), and BiFC fluorescence intensity was automatically measured using Operetta (PerkinElmer) to count stained nuclei in each well out of the entire well plate. […] Furthermore, the degree of cytotoxicity induced by the newly synthesized compound was also measured based on the 100% cell viability of the group treated only with Forskolin as a reference, and the cytotoxicity value of each compound was calculated using the equation “(number of stained nuclei in group treated with compound/number of stained nuclei in group treated with Forskolin)×100”.
(§7) After 48 hours, tau protein aggregation reaction and degrees of cytotoxicity were analyzed by observing images of the cells. IC50 and toxicity of the compounds were analyzed by nonlinear regression analysis of Prism software (Graph Pad).

[3] = Liver microsome stability, dog; type: in vitro ADME; conditions: dog liver microsomes 0.25 mg/mL, 1 μM compound, 37° C., 30 minutes, NADPH
Protocol: as §1, §2

CYP2C19 = biological target: T3, CYP2C19 (Homo sapiens, UniProt P33261); assay: CYP coenzyme activity in human liver microsomes, CYP2C19; type: in vitro ADME; conditions: 10 μM compound, human liver microsomes 0.25 mg/mL, substrate S-mephenytoin, 15 minutes
T3 construct: human liver microsomes (0.25 mg/mL); from tissue; host or cells: human liver microsomes
Protocol: as §3, §4, §5

[4] = Liver microsome stability, mouse; type: in vitro ADME; conditions: mouse liver microsomes 0.25 mg/mL, 1 μM compound, 37° C., 30 minutes, NADPH
Protocol: as §1, §2

CYP2D6 = biological target: T4, CYP2D6 (Homo sapiens, UniProt P10635); assay: CYP coenzyme activity in human liver microsomes, CYP2D6; type: in vitro ADME; conditions: 10 μM compound, human liver microsomes 0.25 mg/mL, substrate dextromethorphan, 15 minutes
T4 construct: human liver microsomes (0.25 mg/mL); from tissue; host or cells: human liver microsomes
Protocol: as §3, §4, §5

CYP3A4 = biological target: T5, CYP3A4 (Homo sapiens, UniProt P08684); assay: CYP coenzyme activity in human liver microsomes, CYP3A4; type: in vitro ADME; conditions: 10 μM compound, human liver microsomes 0.25 mg/mL, substrate midazolam, 15 minutes
T5 construct: human liver microsomes (0.25 mg/mL); from tissue; host or cells: human liver microsomes
Protocol: as §3, §4, §5

tau protein = biological target: T6, tau protein (Homo sapiens, UniProt P10636); assay: Tau-BiFC cell model, Forskolin-induced tau protein aggregation; type: cell-based; conditions: for Tau BiFC in cells Response (%, @10 μM): 10 μM compound, BiFC fluorescence relative to Forskolin-only group (100% tau protein-aggregated state), 48 hours
T6 construct: fused on or other part: Split Venus fragments VN173 and VC155, each fused to one copy of tau as BiFC reporter halves
Protocol: as §6, §7

T3 sequence (P33261 whole entry): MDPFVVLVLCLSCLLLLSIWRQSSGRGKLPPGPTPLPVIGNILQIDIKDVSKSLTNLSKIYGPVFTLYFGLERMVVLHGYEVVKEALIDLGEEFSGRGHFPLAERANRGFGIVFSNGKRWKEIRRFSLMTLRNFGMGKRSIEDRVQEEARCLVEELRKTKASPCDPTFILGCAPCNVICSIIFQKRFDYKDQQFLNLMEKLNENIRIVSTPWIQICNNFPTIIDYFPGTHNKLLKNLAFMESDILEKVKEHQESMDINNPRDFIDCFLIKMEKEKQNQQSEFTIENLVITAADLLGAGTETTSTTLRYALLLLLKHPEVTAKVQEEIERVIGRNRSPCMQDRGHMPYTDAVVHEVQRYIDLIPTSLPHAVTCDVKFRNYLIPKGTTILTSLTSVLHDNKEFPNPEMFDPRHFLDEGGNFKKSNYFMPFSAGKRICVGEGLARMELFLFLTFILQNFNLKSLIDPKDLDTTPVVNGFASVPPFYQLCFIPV
T5 sequence (P08684 whole entry): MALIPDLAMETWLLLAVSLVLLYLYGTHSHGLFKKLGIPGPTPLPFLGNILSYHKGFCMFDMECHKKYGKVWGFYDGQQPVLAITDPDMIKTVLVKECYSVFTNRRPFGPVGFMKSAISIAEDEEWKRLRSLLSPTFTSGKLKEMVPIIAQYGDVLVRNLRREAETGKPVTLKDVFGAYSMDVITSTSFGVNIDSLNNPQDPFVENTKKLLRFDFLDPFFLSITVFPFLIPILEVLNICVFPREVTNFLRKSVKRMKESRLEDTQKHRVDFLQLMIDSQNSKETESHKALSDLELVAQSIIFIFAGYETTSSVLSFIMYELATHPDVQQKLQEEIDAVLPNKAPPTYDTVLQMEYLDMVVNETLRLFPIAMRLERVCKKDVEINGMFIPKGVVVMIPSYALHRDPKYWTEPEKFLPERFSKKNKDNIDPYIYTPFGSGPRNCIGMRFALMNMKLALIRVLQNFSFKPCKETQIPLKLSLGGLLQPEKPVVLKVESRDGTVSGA
T1 sequence (P11712 whole entry): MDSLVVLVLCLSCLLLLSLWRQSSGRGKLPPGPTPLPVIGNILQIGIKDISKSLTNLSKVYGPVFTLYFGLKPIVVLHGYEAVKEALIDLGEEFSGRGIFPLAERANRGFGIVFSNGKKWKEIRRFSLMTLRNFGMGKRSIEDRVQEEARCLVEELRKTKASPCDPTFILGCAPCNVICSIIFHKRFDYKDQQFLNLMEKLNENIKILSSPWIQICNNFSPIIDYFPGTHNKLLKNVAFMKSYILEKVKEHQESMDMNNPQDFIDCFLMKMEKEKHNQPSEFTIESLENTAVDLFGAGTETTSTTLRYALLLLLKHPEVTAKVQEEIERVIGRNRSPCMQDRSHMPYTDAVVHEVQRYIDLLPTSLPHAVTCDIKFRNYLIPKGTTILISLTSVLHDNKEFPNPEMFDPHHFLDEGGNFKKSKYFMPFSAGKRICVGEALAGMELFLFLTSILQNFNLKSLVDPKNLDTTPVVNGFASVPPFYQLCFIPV
T6 sequence (P10636 2-441 isoform P10636-8 limits assumed): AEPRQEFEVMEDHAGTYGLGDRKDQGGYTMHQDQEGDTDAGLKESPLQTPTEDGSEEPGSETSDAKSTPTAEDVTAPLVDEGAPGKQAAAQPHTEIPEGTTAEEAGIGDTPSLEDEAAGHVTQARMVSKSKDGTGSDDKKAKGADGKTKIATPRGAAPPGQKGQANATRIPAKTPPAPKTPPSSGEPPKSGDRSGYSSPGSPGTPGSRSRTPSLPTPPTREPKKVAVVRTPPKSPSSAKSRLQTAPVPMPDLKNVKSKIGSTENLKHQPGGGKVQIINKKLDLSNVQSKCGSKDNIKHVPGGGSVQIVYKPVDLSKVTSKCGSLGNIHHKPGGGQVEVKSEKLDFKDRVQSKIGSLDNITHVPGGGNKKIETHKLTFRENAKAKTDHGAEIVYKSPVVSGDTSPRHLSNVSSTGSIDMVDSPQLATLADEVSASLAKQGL
T4 sequence (P10635 whole entry): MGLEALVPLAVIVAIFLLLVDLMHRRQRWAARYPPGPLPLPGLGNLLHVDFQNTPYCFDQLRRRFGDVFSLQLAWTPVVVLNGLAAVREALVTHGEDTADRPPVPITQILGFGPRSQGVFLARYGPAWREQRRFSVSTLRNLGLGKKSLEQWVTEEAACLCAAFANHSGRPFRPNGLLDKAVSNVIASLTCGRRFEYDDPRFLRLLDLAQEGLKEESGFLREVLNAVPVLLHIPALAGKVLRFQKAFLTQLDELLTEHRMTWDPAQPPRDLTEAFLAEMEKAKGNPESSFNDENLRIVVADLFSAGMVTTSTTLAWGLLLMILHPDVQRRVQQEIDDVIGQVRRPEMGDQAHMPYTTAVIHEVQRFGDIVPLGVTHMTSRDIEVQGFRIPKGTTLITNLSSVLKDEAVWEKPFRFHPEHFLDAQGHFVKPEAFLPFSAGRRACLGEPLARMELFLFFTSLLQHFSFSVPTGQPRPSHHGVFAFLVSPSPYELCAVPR

Structure (SMILES)	Rat (%) amount remaining after the reaction [1]	Human (%) amount remaining after the reaction [2]	CYP2C9 activity (%) with respect to control group not treated with any compound (CYP2C9)	CYP1A2 activity (%) with respect to control group not treated with any compound (CYP1A2)	Cell viability (%, @10 μM) (Tau-BiFC cells)	Dog (%) amount remaining after the reaction [3]	CYP2C19 activity (%) with respect to control group not treated with any compound (CYP2C19)	Mouse (%) amount remaining after the reaction [4]	CYP2D6 activity (%) with respect to control group not treated with any compound (CYP2D6)	CYP3A4 activity (%) with respect to control group not treated with any compound (CYP3A4)	IC50 (tau protein)	Tau BiFC in cells Response (%, @10 μM) (tau protein)
CC(C)N1N=C(c2ccc(NN=C(C#N)C#N)cc2)CCC1=O [Example 1, (4-(1-isopropyl-6-oxo-1,4,5,6-tetrahydropyridazin-3-yl)phenyl)carbonohydrazonoyl dicyanide]	>100%	6.4%	70.4%	79%	110.1%	>100%	70.8%	>100%	74.6%	81.7%	–	–
CC1CC(=O)N(C(C)C)N=C1c1ccc(NN=C(C#N)C#N)cc1 (stereo not shown) [Example 2, (4-(1-isopropyl-4-methyl-6-oxo-1,4,5,6-tetrahydropyridazin-3-yl)phenyl)carbonohydrazonoyl dicyanide]	92.5%	63.6%	65.7%	80.5%	102.8%	>100%	64.7%	89%	84.9%	74.6%	0.4 µM	0%
CCN1N=C(c2ccc(NN=C(C#N)C#N)cc2)C(C)CC1=O (stereo not shown) [Example 3, (4-(1-ethyl-4-methyl-6-oxo-1,4,5,6-tetrahydropyridazin-3-yl)phenyl)carbonohydrazonoyl dicyanide]	89.6%	90.3%	99.9%	>100%	68.2%	91.9%	>100%	89.6%	93.6%	>100%	0.09 µM	0%
CC1CC(=O)N(CC(F)(F)F)N=C1c1ccc(NN=C(C#N)C#N)cc1 (stereo not shown) [Example 4, (4-(4-methyl-6-oxo-1-(2,2,2-trifluoroethyl)-1,4,5,6-tetrahydropyridazin-3-yl)phenyl)carbonohydrazonoyl dicyanide]	96.8%	98.2%	55.6%	74.8%	98.7%	95.6%	45.5%	89%	62.1%	74.2%	0.45 µM	0%
